# Test results reported in paper PMC12281485, “High-Throughput Screening of Potent Drug-like Molecules Targeting 17β-HSD10 for the Treatment of Alzheimer’s Disease and Cancer” (ACS Chemical Biology, 2025).
# Read-outs that look alike come from different tables or passages of the source. Marks after values point to notes of the source that are not given here.
# Columns and labels:
# 17β-HSD10 [1] = target: T1, 17β-HSD10 (Homo sapiens, UniProt Q99714); test: (−)-CHANA fluorescence assay of cellular 17β-HSD10 activity; assay type: cell-based; conditions: read-out: cellular 17β-HSD10 activity mean pEC50 (converted)
# T1 construct: Recombinant 17β-HSD10 was expressed and purified as previously described in Aitken et al; made in house
# T1 sequence (Q99714 1-261): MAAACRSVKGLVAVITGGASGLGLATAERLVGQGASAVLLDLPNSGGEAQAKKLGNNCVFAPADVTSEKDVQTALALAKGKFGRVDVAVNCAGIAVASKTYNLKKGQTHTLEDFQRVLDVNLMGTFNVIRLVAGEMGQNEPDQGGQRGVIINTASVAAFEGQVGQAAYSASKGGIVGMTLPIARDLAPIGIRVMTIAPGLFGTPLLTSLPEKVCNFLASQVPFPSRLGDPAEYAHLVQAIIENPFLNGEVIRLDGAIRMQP
# Description: (−)–CHANA ((−)-cyclohexenyl amino naphthalene alcohol) is a fluorogenic probe that can be used to detect 17β-HSD10 activity in living cells. HEK293 17β-HSD10 cells were seeded at a density of 10,000 cells per well (100 μL, 96-well black plates) in phenol-red free media (10% FBS, 1 mM sodium pyruvate, 100 units penicillin, 0.1 mg mL^–1 streptomycin, and 2 mM L-glutamine). […] The fluorogenic probe (−)–CHANA was then added to each well to give a final assay concentration of 20 μM. Fluorescence was immediately measured using the FLUOstar Optima microplate reader (excitation = 380 nm, emission = 520 nm, orbital averaging = 3 mm), and the initial reaction was monitored for 3–4 h. EC50 was calculated from the control-subtracted triplicates using nonlinear regression (four parameters) of GraphPad Prism 5 software. The Final EC50 and SEM values were obtained as a mean of at least three independent measurements.
# [2] = system: HEK293 cells overexpressing 17β-HSD10; test: Alamar Blue cell viability assay; assay type: cell-based, human; conditions: 50 μM compound, 24 h, n = 3 ± SD
# Description: (§1) Cell viability was assessed via fluorescence change using the commercially available Alamar Blue from ThermoFisher. HEK293 cells overexpressing 17β-HSD10 were cultured in phenol-red free media (10% FBS, 1 mM sodium pyruvate, 100 units penicillin, 0.1 mg mL^–1 streptomycin, and 2 mM L-glutamine) and seeded at a density of 10,000 cells per well (100 μL, 96-well plates). […] Treated cells were then incubated at 37 °C and CO2 (5%) for 24 h before the assay was performed as per the manufacturer’s instructions. Fluorescence was measured at 530 nm excitation and 590 nm emission using the SpectraMaxM2e spectrophotometer.
# [3] = system: HEK293 cells overexpressing 17β-HSD10; test: LDH cytotoxicity assay; assay type: cell-based, human; conditions: 50 μM compound, 24 h, n = 3 ± SD
# Description: Cell cytotoxicity was assessed via the measurement of LDH leakage into the culture medium using a commercially available kit from Pierce (Thermo Scientific cat no. 88953). This was carried out in accordance with the kit guidelines, with the activity of LDH being calculated from the change in absorbance at […]. Human embryonic kidney (HEK293) cells overexpressing 17β-HSD10 were cultured in phenol-red free media (10% FBS, 1 mM sodium pyruvate, 100 units penicillin, 0.1 mg mL^–1 streptomycin, and 2 mM L-glutamine) and seeded at a density of 10,000 cells per well (100 μL, 96-well plates). […] Treated cells were then incubated at 37 °C and CO2 (5%) for 24 h before the LDH assay was performed as per the manufacturer’s instructions. Spontaneous control (water) and maximum control (lysis buffer) were used in accordance with the kit guide. Absorbance was measured at 490 and 680 nm using the SpectraMaxM2e spectrophotometer. The measured LDH activity was used to calculate %cytotoxicity using the following equation (eq ): %cytotoxicity=(compoundtreatedLDHactivity−spontaneousLDHactivity)/(maximumLDHactivity−spontaneousLDHactivity)×100 1
# 17β-HSD10 [4] = target: T1, 17β-HSD10; test: 17β-HSD10 enzyme inhibition dose-response assay (acetoacetyl-CoA/NADH, absorbance 340 nm); assay type: biochemical
# Description: Recombinant 17β-HSD10 was expressed and purified as previously described in Aitken et al.
# 17β-HSD10 screening was carried out as described in Aitken et al. with the exception that experiments were also conducted in clear-bottom 1536-well low-volume microplates (Corning) with a final assay volume of 20 μL. For primary screening, an endpoint assay format was adopted, in which an Echo acoustic liquid dispenser (Labcyte) was used to transfer 20 nL of either DMSO control […] or test compounds (10 μM) to the assay plate. 10 μL of the 17β-HSD10 enzyme in an assay buffer (2.5 nM) was then added to the plates using the Preddator liquid handling robot (Redd and Whyte), and plates were incubated at RT for 15 min. 10 μL of the substrate mixture (100 μM acetoacetyl-CoA and 100 μM NADH) was added with the Preddator. To start the reaction, the plates were left to incubate for 35 min at RT before the absorbance at 340 nm was read on the EnVision plate reader (PerkinElmer). For the kinetic assay format and dose-response follow-up experiments, the same protocol was adopted, except that the absorbance at 340 nm was monitored constantly for 45 min from immediately after the reaction was started.
# [5] = Mouse hepatocyte metabolic stability; assay type: in vitro ADME; set-up: k (elimination constant): unit not given here; conditions: mouse hepatocytes; for Heps category: metabolism category; for Cl (clearance): limits of quantitation 0.5 and 50; for half-life: read-out: T1/2 (half-life)
# Description: (§2) Hepatocyte isolation, hepatocyte incubations for metabolic stability, plasma protein binding (PPB) experiments, and LC/MS sample analysis were carried out as previously described in Brandon et al. and MacLeod et al.
# XLfit (IDBS, UK) was used to calculate the exponential decay and the rate constant (k) from the ratio of the peak area of the test compound to the internal standard at each time point. […] Verapamil, 7-ethoxycoumarin, 7-hydroxycoumarin, and phthalazine were used as positive controls to confirm acceptable assay performance. […] Values were transferred to RStudio v1.3.1093 (Posit, Boston, MA, USA) for generation of scatter plots and heatmaps using the ggplot2 package (Wickham 2016).
# 17β-HSD10 [6] = target: T1, 17β-HSD10; set-up: method as in Kissinger et al.; conditions: Table 5, ref Kissinger et al.; cited from earlier work
# 17β-HSD10 [7] = target: T1, 17β-HSD10; test: Acetoacetyl-CoA and NADH enzyme kinetics (mode of inhibition); assay type: biochemical; conditions: for mode of inhibition with respect to acetoacetyl-CoA (AcAc): AcAc diluted from 1000 μM, 100 μM NADH; for mode of inhibition with respect to NADH: AcAc in excess at 800 μM, NADH diluted from 150 μM
# Description: To determine the mode of inhibition, a matrix titration was used to calculate the kinetic parameters for acetoacetyl-CoA and NADH and the effect of 17β-HSD10 concentration upon reaction rate. Previously determined conditions as described in Aitken et al. were used. Data collected from the experiment were analyzed by plotting reaction progress curves to calculate the initial velocities, Vmax, and Km values using the Michaelis–Menten equation (XLFit, ID Business Solutions). Hanes Woolf plots were used to determine the mechanism of inhibition. Two compounds, ESC1002033 and ESC1002082, representative of the two unique clusters, were investigated for their mechanism of action against the substrates, NADH (Supplementary C, Figure S2) and AcetoAcetyl-CoA (AcAc) (Supplementary C, Figure S3). Both ESC1002033 and ESC1002082 inhibitors were tested as a 12-point serial dilution series with a maximal concentration of 2.5 μM. […] When investigating the effect of AcAc, it was diluted from 1000 μM with an excess of 100 μM NADH. Both inhibitors appear to have a similar mechanism of action. For NADH, with increasing concentration of the inhibitor, there is a decrease in Vmax (Figure SC1B) with no change in Km (Figure SC1C), which is characteristic of non-competitive (mixed) inhibition. This is also reflected by the convergence of the data to the left of the y axis on the Lineweaver–Burke plot (Figure SC1D). In contrast, with AcAc present, there was an increase in Kmapp with increasing inhibitor concentrations (Figure SC2C), which is characteristic of competitive inhibition. […] However, the data in Figure SC2D have been fitted for substrate inhibition (Y = V max × X/(Km + X × (1 + X/K i))), and the diagnostic Lineweaver–Burke plot also supports the conclusion that inhibition is competitive with AcAc (Figure SC2D).
# [8] = Alamar Blue cell viability assay; assay type: cell-based, human; conditions: human, HEK293 cells overexpressing 17β-HSD10, 50 μM compound, n = 3 ± SD, read-out: Alamar Blue % viability (50 μM dose)
# Description: as §1
# [9] = Mouse plasma protein binding; assay type: in vitro ADME; conditions: read-out: mouse PPB (% free)
# Description: as §2
# [10] = Table 4, 17β-HSD10 overexpressing HEK293 cells, CHANA fluorescence assay
# [11] = Table 3, chemically modified singleton hit compound series, read-out: 17β-HSD10 pIC50 (converted)
# [12] = Table 5, HEK293 17β-HSD10 cells, CHANA assay
# [13] = Table 2, chemically modified cluster hit compounds, read-out: 17β-HSD10 pIC50 (converted)
# [14] = Table 5, read-out: mean 17β-HSD10 pIC50 (converted)
SMILES,EC50 (17β-HSD10 [1]; [10]) [nM],k (elimination constant) [5],Heps category [5],Cl (clearance) [5] [mL/min/g liver],EC50 (17β-HSD10 [1]; [12]) [nM],half-life [5] [min],Alamar Blue % viability (50 μM dose) [2] [%],LDH % toxicity (50 μM dose) [3] [%],also measured
COc1ccc(-c2ccccc2[C@H]2CCCN2C(=O)c2sccc2C)cn1 [ESC1002162],1130,–,–,–,–,–,78.79 ± 0.91,6.84 ± 0.02,"17β-HSD10 pIC50 (17β-HSD10 [4]; Supplementary B, Table S1 and text, enantiomers): 6.31"
"O=C(C(c1ccccc1)n1cnc2[nH]ncc2c1=S)N1CCCCCC1 (centres unmarked) [AG18051, reference compound]",–,0.11,High,>50,–,–,–,–,T1/2 (half-life) [5]: 6.6 min; mean 17β-HSD10 pIC50 (17β-HSD10 [6]): 7.04 ^b
COc1cccc(-c2ccccc2C2CCCN2C(=O)c2sccc2C)c1 (centres unmarked) [ESC1002421],671,–,–,–,–,–,102.63 ± 1.32,5.16 ± 0.01,IC50 (17β-HSD10 [4]; [11]): 186 nM
O=C(c1sccc1Cl)N1CCCC1c1ccccc1-c1ccc(F)c(O)c1 (centres unmarked) [ESC1002838],232,–,–,–,–,–,94.28 ± 1.31,5.58 ± 0.03,IC50 (17β-HSD10 [4]; [11]): 51.3 nM
COc1ccc(-c2ccccc2C2CCCN2C(=O)c2sccc2C)cn1 (centres unmarked) [ESC1002082],–,–,–,–,–,–,–,–,"mode of inhibition with respect to acetoacetyl-CoA (AcAc) (17β-HSD10 [7]): competitively; mode of inhibition with respect to NADH (17β-HSD10 [7]): non-competitively; LipE (17β-HSD10 [4]): 1.45; LipE (17β-HSD10 [4]; Table 1, lipophilic efficiency): 1.45"
O=C(c1sccc1Cl)N1CCC[C@H]1c1ccccc1-c1cc(O)ccc1F [ESC1002842],40,0.17,high,>50,40,4,–,5.90 ± 0.004,"viability at 24 h, 50 μM [8]: 82.44 ± 0.32%; fraction unbound [9]: 0.034; IC50 (17β-HSD10 [4]; [11]): 40.7 nM"
CC(C)CN(C(=O)c1ccccc1F)c1cccc(N(C)Cc2cnc[nH]2)c1 [ESC1002033],–,0.013,mod,6.2,–,53.8,–,–,mode of inhibition with respect to acetoacetyl-CoA (AcAc) (17β-HSD10 [7]): competitively; mode of inhibition with respect to NADH (17β-HSD10 [7]): non-competitively; IC50 (17β-HSD10 [4]; [13]): 200 nM; IC50 (17β-HSD10 [4]; [14]): 200 nM

# Continued, in another order:
EC50 (17β-HSD10 [1]; [10]) [nM],k (elimination constant) [5],Heps category [5],Cl (clearance) [5] [mL/min/g liver],EC50 (17β-HSD10 [1]; [12]) [nM],half-life [5] [min],SMILES,Alamar Blue % viability (50 μM dose) [2] [%],LDH % toxicity (50 μM dose) [3] [%],also measured
511,0.02,Mod,7.2,511,–,Cc1ccsc1C(=O)N(CC(C)C)c1cccc(N(C)Cc2c[nH]cn2)c1 [ESC1002597],78.78 ± 1.72,4.98 ± 0.04,T1/2 (half-life) [5]: 46.2 min; mean 17β-HSD10 pIC50 (17β-HSD10 [4]; Table 5): 6.4
2460,–,–,–,–,–,Cc1ncc(CN(C)c2cccc(N(CC(C)C)C(=O)c3ccccc3F)c2)[nH]1 [ESC1002203],82.98 ± 1.25,6.64 ± 0.03,fold less potent than ESC1002033 (17β-HSD10 [4]; relative to ESC1002033): approximately 3 fold
141,0.018,high,8.6,141,38.5,CC(C)CN(C(=O)c1c(F)cccc1F)c1cccc(N(C)Cc2c[nH]cn2)c1 [ESC1002456],–,4.78 ± 0.01,"viability at 24 h, 50 μM [8]: 79.2 ± 1.21%; fraction unbound [9]: 0.089; IC50 (17β-HSD10 [4]; [13]): 138 nM; IC50 (17β-HSD10 [4]; [14]): 138 nM"
367,0.012,mod,5.8,367,57.2,Cc1ccc(C(=O)N(CC(C)C)c2cccc(N(C)Cc3c[nH]cn3)c2)c(F)c1 [ESC1002575],–,4.78 ± 0.02,"viability at 24 h, 50 μM [8]: 92.57 ± 0.47%; fraction unbound [9]: 0.076; IC50 (17β-HSD10 [4]; [13]): 269 nM; IC50 (17β-HSD10 [4]; [14]): 269 nM"
